Laboratory results taken from patent publication US9862678B2, “3,4-diaminobenzenesulfonamide derivatives for inhibiting cell death” (VIB VZW, priority 2014, dated 2018).
Each block holds one compound with its values, some of them ahead of it.

What was measured:
[1] = test system: IMR-32 neuroblastoma cell line; experiment: Inhibition of erastin-induced ferroptosis in IMR-32 cells (Sytox Green cell death readout); type: cell-based; settings: Homo sapiens; inhibiting ferroptosis in the IMR-32 neuroblastoma cell line stimulated with 10 μM erastin; compounds 1 nM to 1 μM, triplicate
Protocol: In the present disclosure, the potency of a compound inhibiting (or reducing) ferroptosis and/or oxytosis are determined in in vitro or in vivo assays. Typically in vitro assays are used to measure the potency of a candidate compound. Examples of suitable in vitro assays are cellular assays. One non-limiting example of an assay involves the use of the IMR-32 neuroblastoma cell line. The latter is stimulated to enter into ferroptosis upon stimulation with 10 μM erastin, a documented ferroptosis inducer (see, for example, Dixon et al. (2012) Cell 149, 1060-1072, and ferroptosis inhibitors are evaluated for the prevention of erastin-induced ferroptosis. Yet another assay is based the glutamate-induced cell death in the hippocampal cell line HT22 and ferroptosis/oxytosis inhibitors are evaluated for the prevention of cell death (see N. Henke et al. (2013) Cell Death and Disease 4, e470). Still another assay is based on the sorafinib-induced cell death (described to be iron dependent cell death) in hepatocellular carcinoma cells and ferroptosis inhibitors are evaluated for the prevention of cell death (see C. Louandre et al. (2013) Int. J. Cancer 133, 1732). The calculated potency of a compound inhibiting ferroptosis and/or oxytosis is typically depicted as an IC50 value. Examples of suitable in vivo assays are typically pre-clinical disease models of, for example, mice for the diseases benefiting the application of ferroptosis and/or oxytosis inhibitors, as described herein. One non-limiting example of an in vivo assay is based on inducing liver damage in mice by administering the herbicide diquat dibromide monohydrate and ferroptosis inhibitors are evaluated based on reduced levels of liver transaminases in serum (see Q. Ran et al. (2004) J. Biol. Chem. 279, 53, 55137).
The IC50 values for the individual compounds of the disclosure were determined in the neuroblastoma, IMR-32 cell line. In brief, IMR-32 cells were subjected to 10 μM erastin, the latter compound is known to induce ferroptosis. A concentration gradient (ranging from 1 nM to 1 μM) of the compounds was applied to the cells. These experiments were performed in a 96-well format (in triplicate), and cell death was analyzed in a fluorescent plate reader by use of a fluorescent cell death dye (1.5 μM Sytox Green). The IC50 values depicted in Table 1 are the concentration values for the individual compounds which are able to overcome ferroptosis.

[2] = Kinetic solubility (turbidity); type: physicochemical; settings: aqueous buffer, kinetic from dmso stock; kinetic solubility by turbidity; test range 3.125 μM to 200 μM; 10 mM PBS pH 7.4
Protocol: Unless otherwise stated, laboratory reagent grade solvents were used. Reagents were obtained from Sigma-Aldrich, Acros Organics or Fluorochem and were used without further purification. Characterization of all compounds was done with ^1H and ^13C NMR and mass spectrometry. ^1H and ^13C NMR spectra were recorded on a 400 MHz Bruker Avance III Nanobay spectrometer with Ultrashield and analyzed by use of MestReNova analytical chemistry software. Chemical shifts are in ppm, and coupling constants are in hertz (Hz). ES mass spectra were obtained from an Esquire 3000 plus ion trap mass spectrometer from Bruker Daltonics. Purities were determined with two diverse HPLC systems based either on mass determination or on UV detection. A Waters acquity UPLC system coupled to a Waters TQD ESI mass spectrometer or a Waters SQD ESI mass spectrometer was used both in combination with a Waters TUV detector. Water (A) and CH3CN (B) were used as eluents. LC-MS spectra were recorded on an Agilent 1100 series HPLC system using a Alltech Prevail C18 column (2.1 mm×50 mm, 3 μm) coupled with an Esquire 3000 plus as MS detector, and a “method A” 5-100% B, 20 min gradient was used with a flow rate of 0.2 mL/min. Formic acid, 0.1%, was added to solvents A and B. Waters Acquity UPLC BEH C18 1.7 μm, 2.1 mm×50 mm column was used. Solvent A consisted of water with 0.1% formic acid. Solvent B consisted of acetonitrile with 0.1% formic acid. Method I involved the following: 0.15 min 95% A, 5% B, then in 1.85 min from 95% A, 5% B to 95% B, 5% A, then 0.25 min (0.350 mL/min), 95% B, 5% A. The wavelength for UV detection was 254 nm. Method II involved the following: flow 0.4 mL/min, 0.25 min 95% A, 5% B, then in 4.75 min to 95% B, 5% A, then 0.25 min 95% B, 5% A, followed by 0.75 min 95% A, 5% B. The wavelength for UV detection was 214 nm. Where necessary, flash purification was performed on a Biotage ISOLERA One flash system equipped with an internal variable dual wavelength diode array detector (200-400 nm). For normal phase purifications SNAP cartridges (10-340 g, flow rate of 10-100 mL/min) were used, and reversed phase purifications were done making use of KP-C18 containing cartridges. Dry sample loading was done by self-packing samplet cartridges using silica and Celite 545, respectively, for normal and reversed phase purifications. Gradients used varied for each purification. Mouse and rat plasma came from Innovative Research. The turbidity in the kinetic solubility experiments was measured using the UV/vis spectrophotometer Synergy MX, Biotek with Gen5.

Structure (SMILES): CCNS(=O)(=O)c1ccc(NC2CC2)c(N)c1 [Compound 20, 3-amino-4-(cyclopropylamino)-N-ethylbenzenesulfonamide]
- IC50 [1]: 0.076 µM

Structure (SMILES): CCNS(=O)(=O)c1ccc(NC2CCCC2)c(N)c1 [Compound 21, 3-amino-4-(cyclopentylamino)-N-ethylbenzenesulfonamide]
- IC50 [1]: 0.082 µM

Structure (SMILES): CCNS(=O)(=O)c1ccc(NC2CC3CCC2C3)c(N)c1 (stereo not drawn) [Compound 23, 3-amino-4-(bicyclo[2.2.1]heptan-2-ylamino)-N-ethylbenzenesulfonamide]
- IC50 [1]: 0.028 µM

Structure (SMILES): CCNS(=O)(=O)c1ccc(NC2CCCCCCC2)c(N)c1 [Compound 24, 3-amino-4-(cyclooctylamino)-N-ethylbenzenesulfonamide]
- IC50 [1]: 0.0093 µM

Structure (SMILES): CCNS(=O)(=O)c1ccc(NC2C3CC4CC(C3)CC2C4)c(N)c1 (stereo not drawn) [Compound 25, 4-(adamantan-2-ylamino)-3-amino-N-ethylbenzenesulfonamide]
- IC50 [1]: 0.017 µM

Structure (SMILES): CNS(=O)(=O)c1ccc(NC2CCCCC2)c(N)c1 [Compound 26, 3-amino-4-(cyclohexylamino)-N-methylbenzenesulfonamide]
- IC50 [1]: 0.076 µM

Structure (SMILES): CNS(=O)(=O)c1ccc(NC2C3CC4CC(C3)CC2C4)c(N)c1 (stereo not drawn) [Compound 27, 3-amino-4-(adamantan-2-ylamine)-N-methylbenzenesulfonamide]
- IC50 [1]: 0.011 µM

Structure (SMILES): CC(C)(C)NS(=O)(=O)c1ccc(NC2CCCCC2)c(N)c1 [Compound 28, 3-amino-N-(tert-butyl)-4-(cyclohexylamino)benzenesulfonamide]
- IC50 [1]: 0.027 µM

Structure (SMILES): CC(C)(C)NS(=O)(=O)c1ccc(NC2C3CC4CC(C3)CC2C4)c(N)c1 (stereo not drawn) [Compound 29, 3-amino-N-(tert-butyl)-4-(adamantan-2-ylamine)benzenesulfonamide]
- IC50 [1]: 0.006 µM

Structure (SMILES): CC(C)(C)OCCNS(=O)(=O)c1ccc(NC2CCCCC2)c(N)c1 [Compound 30, 3-amino-N-(2-(tert-butoxy)ethyl)-4-(cyclohexylamino)benzenesulfonamide]
- IC50 [1]: 0.132 µM

- solubility [2]: > 200 µM
Structure (SMILES): CN1CCN(S(=O)(=O)c2ccc(NC3CCCCC3)c(N)c2)CC1 [Compound 31, N1-cyclohexyl-4-((4-methylpiperazin-1-yl)sulfonyl)benzene-1,2-diamine]
- IC50 [1]: 0.206 µM

- solubility [2]: > 200 µM
Structure (SMILES): Nc1cc(S(=O)(=O)N2CCOCC2)ccc1NC1CCCCC1 [Compound 32, N1-cyclohexyl-4-(morpholinosulfonyl)benzene-1,2-diamine]
- IC50 [1]: 0.208 µM

Structure (SMILES): CCNS(=O)(=O)c1ccc(NC2CC2)c(NCc2ccccc2)c1 [Compound 33, 3-(benzylamino)-4-(cyclopropylamino)-N-ethylbenzenesulfonamide]
- IC50 [1]: 0.061 µM

Structure (SMILES): CCNS(=O)(=O)c1ccc(NC2CC2)c(NCc2ccncc2)c1 [Compound 34, 4-(cyclopropylamino)-N-ethyl-3-((pyridin-4-ylmethyl)amino)benzenesulfonamide]
- IC50 [1]: 0.128 µM

Structure (SMILES): CCNS(=O)(=O)c1ccc(NC2CCCC2)c(NCc2ccccc2)c1 [Compound 35, 3-(benzylamino)-4-(cyclopentylamino)-N-ethylbenzenesulfonamide]
- IC50 [1]: 0.0082 µM

Structure (SMILES): CCNS(=O)(=O)c1ccc(NC2CCCC2)c(NCc2ccncc2)c1 [Compound 36, 4-(cyclopentylamino)-N-ethyl-3-((pyridin-4-ylmethyl)amino)benzenesulfonamide]
- IC50 [1]: 0.036 µM

Structure (SMILES): CCNS(=O)(=O)c1ccc(NC2CCCCC2)c(NCc2ccncc2)c1 [Compound 38, 4-(cyclohexylamino)-N-ethyl-3-((pyridin-4-ylmethyl)amino)benzenesulfonamide]
- IC50 [1]: 0.023 µM

Structure (SMILES): CCNS(=O)(=O)c1ccc(NC2CC3CCC2C3)c(NCc2ccccc2)c1 (stereo not drawn) [Compound 40, 3-(benzylamino)-4-(bicyclo[2.2.1]heptan-2-ylamino)-N-ethylbenzenesulfonamide]
- IC50 [1]: 0.003 µM

Structure (SMILES): CCNS(=O)(=O)c1ccc(NC2CC3CCC2C3)c(NCc2ccncc2)c1 (stereo not drawn) [Compound 41, 4-(bicyclo[2.2.1]heptan-2-ylamino)-N-ethyl-3-((pyridin-4-ylmethyl)amino) benzenesulfonamide]
- IC50 [1]: 0.0094 µM

Structure (SMILES): CCNS(=O)(=O)c1ccc(NC2CCCCCCC2)c(NCc2ccccc2)c1 [Compound 42, 3-(benzylamino)-4-(cyclooctylamino)-N-ethylbenzenesulfonamide]
- IC50 [1]: 0.0024 µM

Structure (SMILES): CCNS(=O)(=O)c1ccc(NC2CCCCCCC2)c(NCc2ccncc2)c1 [Compound 43, 4-(cyclooctylamino)-N-ethyl-3-((pyridin-4-ylmethyl)amino)benzenesulfonamide]
- IC50 [1]: 0.022 µM

Structure (SMILES): CCNS(=O)(=O)c1ccc(NC2C3CC4CC(C3)CC2C4)c(NCc2cncnc2)c1 (stereo not drawn) [Compound 46, 4-(adamantan-2-ylamino)-N-ethyl-3-((pyrimidin-5-ylmethyl)amino)benzenesulfonamide]
- IC50 [1]: 0.047 µM

Structure (SMILES): CNS(=O)(=O)c1ccc(NC2CCCCC2)c(NCc2ccccc2)c1 [Compound 47, 3-(benzylamino)-4-(cyclohexylamino)-N-methylbenzenesulfonamide]
- IC50 [1]: 0.0037 µM

Structure (SMILES): CNS(=O)(=O)c1ccc(NC2CCCCC2)c(NCc2ccncc2)c1 [Compound 48, 4-(cyclohexylamino)-N-methyl-3-((pyridin-4-ylmethyl)amino)benzenesulfonamide]
- IC50 [1]: 0.015 µM

Structure (SMILES): CNS(=O)(=O)c1ccc(NC2C3CC4CC(C3)CC2C4)c(NCc2ccccc2)c1 (stereo not drawn) [Compound 49, 4-(adamantan-2-ylamino)-3-(benzylamino)-N-methylbenzenesulfonamide]
- IC50 [1]: 0.0049 µM

Structure (SMILES): CNS(=O)(=O)c1ccc(NC2C3CC4CC(C3)CC2C4)c(NCc2ccncc2)c1 (stereo not drawn) [Compound 50, 4-(adamantan-2-ylamino)-N-methyl-3-((pyridin-4-ylmethyl)amino)benzenesulfonamide]
- IC50 [1]: 0.0064 µM

Structure (SMILES): CC(C)(C)NS(=O)(=O)c1ccc(NC2CCCCC2)c(NCc2ccccc2)c1 [Compound 51, 3-(benzylamino)-N-(tert-butyl)-4-(cyclohexylamino)benzenesulfonamide]
- IC50 [1]: 0.0062 µM

Structure (SMILES): CC(C)(C)NS(=O)(=O)c1ccc(NC2CCCCC2)c(NCc2ccncc2)c1 [Compound 52, N-(tert-butyl)-4-(cyclohexylamino)-3-((pyridin-4-ylmethyl)amino)benzenesulfonamide]
- IC50 [1]: 0.011 µM

Structure (SMILES): CC(C)(C)NS(=O)(=O)c1ccc(NC2C3CC4CC(C3)CC2C4)c(NCc2ccccc2)c1 (stereo not drawn) [Compound 53, 4-(adamantan-2-ylamino)-3-(benzylamino)-N-(tert-butyl)benzenesulfonamide]
- IC50 [1]: 0.0034 µM

Structure (SMILES): CC(C)(C)NS(=O)(=O)c1ccc(NC2C3CC4CC(C3)CC2C4)c(NCc2ccncc2)c1 (stereo not drawn) [Compound 54, 4-(adamantan-2-ylamino)-N-(tert-butyl)-3-((pyridin-4-ylmethyl)amino)benzenesulfonamide]
- IC50 [1]: 0.0052 µM

Structure (SMILES): CC(C)(C)OCCNS(=O)(=O)c1ccc(NC2CCCCC2)c(NCc2ccccc2)c1 [Compound 55, 3-(benzylamino)-N-(2-(tert-butoxy)ethyl)-4-(cyclohexylamino)benzenesulfonamide]
- IC50 [1]: 0.022 µM
